Assay results as given in the supplement of paper PMC5579334.
± gives the standard deviation of the averaged measurements.

What was measured:
[1] = tested on: HS-PSS; test: drug sensitivity score (DSS, CellTiter-Glo viability, 72 h) (DSS (dimensionless)); higher = more sensitive; extreme values may be limits of the assay
In short: (§1)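 Viability was scored by CellTiter-Glo ATP luminescence, scaled from vehicle to positive-control wells, with duplicates averaged where present. The cells, MPNST lines and primary human Schwann cells at 750–1000 per well, sat 72 h at 37 °C, 5% CO2, in 384-well plates preprinted with each compound at five concentrations in 10-fold steps. Four-parameter logistic fits were run on the data. These fits give drug sensitivity score and relative IC50 censored at the top concentration, and percent inhibition is reported at the top concentration.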

[2] = tested on: HS-Sch-2; test: as above
In short: as §1

[3] = tested on: HSC1 (primary human Schwann cells); test: as above
In short: as §1

[4] = tested on: HSC2 (primary human Schwann cells); test: as above
In short: as §1

[5] = tested on: S1507-2; test: as above
In short: as §1

[6] = tested on: S462; test: as above
In short: as §1

[7] = tested on: ST8814; test: as above
In short: as §1

[8] = tested on: STS26T; test: as above
In short: as §1

[9] = tested on: YST-1; test: as above
In short: as §1

[10] = tested on: HS-PSS; test: drug sensitivity score (DSS, CellTox-Green cytotoxicity, 72 h) (DSS (dimensionless)); higher = more cytotoxic; extreme values may be limits of the assay
In short: (§2)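 MPNST cell lines and primary human Schwann cells were incubated 72 h at 37 °C in 384-well plates holding five 10-fold compound dilutions. CellTox-Green was added before seeding at a final 1:1000 dilution and reported fluorescence from DNA released by disrupted cells. Signals were scaled to vehicle and positive-control wells, and cultures failing plate quality control were dropped. Drug sensitivity score and relative IC50 come from four-parameter logistic fits, with IC50 censored at the top concentration.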

[11] = tested on: HSC1 (primary human Schwann cells); test: as above
In short: as §2

[12] = tested on: HSC2 (primary human Schwann cells); test: as above
In short: as §2

[13] = tested on: S1507-2; test: as above
In short: as §2

[14] = tested on: ST8814; test: as above
In short: as §2

[15] = tested on: STS26T; test: as above
In short: as §2

[16] = tested on: HS-PSS; test: % inhibition of CellTiter-Glo viability at highest tested concentration (72 h), relative to DMSO and benzethonium chloride controls; higher = more inhibition
In short: as §1

[17] = tested on: HS-Sch-2; test: as above
In short: as §1

[18] = tested on: HSC1 (primary human Schwann cells); test: as above
In short: as §1

[19] = tested on: HSC2 (primary human Schwann cells); test: as above
In short: as §1

[20] = tested on: S1507-2; test: as above
In short: as §1

[21] = tested on: S462; test: as above
In short: as §1

[22] = tested on: ST8814; test: as above
In short: as §1

[23] = tested on: STS26T; test: as above
In short: as §1

[24] = tested on: YST-1; test: as above
In short: as §1

Structure (SMILES)	drug sensitivity score [1]	drug sensitivity score [2]	drug sensitivity score [3]	drug sensitivity score [4]	drug sensitivity score [5]	drug sensitivity score [6]	drug sensitivity score [7]	drug sensitivity score [8]	drug sensitivity score [9]	drug sensitivity score [10]	drug sensitivity score [11]	drug sensitivity score [12]	drug sensitivity score [13]	drug sensitivity score [14]	drug sensitivity score [15]	% inhibition [16] [%]	% inhibition [17] [%]	% inhibition [18] [%]	% inhibition [19] [%]	% inhibition [20] [%]	% inhibition [21] [%]	% inhibition [22] [%]	% inhibition [23] [%]	% inhibition [24] [%]
C/C(=C\c1csc(C)n1)[C@@H]1C[C@@H]2O[C@]2(C)CCC[C@H](C)[C@H](O)[C@@H](C)C(=O)C(C)(C)[C@@H](O)CC(=O)O1 [Patupilone] (max concentration tested 1000 nM)	17.9	32.7	29.1	25.2	24.4 ± 1.7	37.7 ± 0.67	28.4	36.5	31	0	11.5	18.8	21.9 ± 2.8	23.9	36.6	42.2	91.9	70	73	80.9 ± 0.77	92.6 ± 0.95	84.4	96.8	78.1
Cc1ccc(Nc2nccc(N(C)c3ccc4c(C)n(C)nc4c3)n2)cc1S(N)(=O)=O [Pazopanib] (max concentration tested 10000 nM)	6.09	1.37	2.03	0.68	0.325 ± 0.46	0	0	0	0	0	0	0	0	0	0	42.6	20.7	20.7	15.2	9.04 ± 7	-0.988 ± 9.1	-2.02	7.27	0.99
OC[C@H]1O[C@@H](n2cnc3c2N=CNC[C@H]3O)C[C@@H]1O [Pentostatin] (max concentration tested 10000 nM)	0	0	0	0	0	0	0	0	1.08	0	0	0	0	0	0	6.06	8.51	4.07	0.65	-4.44 ± 9.6	-16.1 ± 7.5	-0.684	-3.81	9.08
NS(=O)(=O)OC[C@@H]1C[C@@H](n2ccc3c(N[C@H]4CCc5ccccc54)ncnc32)C[C@@H]1O [Pevonedistat] (max concentration tested 10000 nM)	23.8	28	12	14.3	17.3 ± 1	23.2 ± 1.4	20	12.7	15.2	10.7	4.84	3	16.7 ± 2.1	19.3	11.7	97	101	77.1	84.4	87.5 ± 1.1	96.07 ± 0.96	95.6	83.4	67.7
CC[C@@H]1C(=O)OC[C@@H]1Cc1cncn1C [Pilocarpine] (max concentration tested 40000 nM)	0	0.48	0	0	0.028 ± 0.04	0	0	0	0	0	0	0	0	0	0	3.53	14.2	-5.47	-5.33	-0.921 ± 8.8	-8.07 ± 3.1	-5.43	-5.95	-0.64
O=C(NC[C@H](O)CO)c1ccncc1Nc1ccc(I)cc1F [Pimasertib] (max concentration tested 10000 nM)	2.94	5.83	7.67	7.43	11.9 ± 1.4	11.9 ± 0.82	10.8	6.72	1.29	0	0.153	0	5.35 ± 0.4	6.32	0.309	44.3	55.4	60.7	65	81.8 ± 2.4	83.69 ± 0.41	95.9	42	34.4
O=C(CCBr)N1CCN(C(=O)CCBr)CC1 [Pipobroman] (max concentration tested 10000 nM)	0	0	0	0	0	0	0	0	0	0	0	0	0	0	0	1.73	9.93	0.741	0.945	-11.3 ± 2.3	-17 ± 7.2	-3.56	-2.55	4.98
CO[C@H](C(=O)[C@@H](O)[C@@H](C)O)[C@@H]1Cc2cc3cc(O[C@H]4C[C@@H](O[C@H]5C[C@@H](O)[C@H](O)[C@@H](C)O5)[C@@H](O)[C@@H](C)O4)c(C)c(O)c3c(O)c2C(=O)[C@H]1O[C@H]1C[C@@H](O[C@H]2C[C@@H](O[C@H]3C[C@](C)(O)[C@H](O)[C@@H](C)O3)[C@H](O)[C@@H](C)O2)[C@H](O)[C@@H](C)O1 [Plicamycin] (max concentration tested 10000 nM)	9.51	12.5	24.4	24.6	22.5 ± 0.9	24.32 ± 0.091	25.7	27	14.8	2.63	10.6	12.6	10.4 ± 4.4	0	25.9	96.8	102	83.7	87	87 ± 2.5	97.26 ± 0.26	82.8	95.8	101
Nc1cccc2c1C(=O)N(C1CCC(=O)NC1=O)C2=O (configuration not stated) [Pomalidomide] (max concentration tested 10000 nM)	0	0	0	0	0	0.575 ± 0.81	0	0	0	0	0	0	0.571 ± 0.72	0	0	-13.4	-6.26	8.79	-10.6	-0.849 ± 0.56	8.99 ± 10	8.53	2.08	-0.59
C[C@]12C=CC(=O)C=C1CC[C@@H]1[C@@H]2[C@@H](O)C[C@@]2(C)[C@H]1CC[C@]2(O)C(=O)CO [Prednisolone] (max concentration tested 10000 nM)	0	0	0	0	0.89 ± 1.3	0	3.88	0	0.25	0	0	0	0	0	0	-16.2	6	6.78	-7.75	11.2 ± 15	-0.231 ± 7	15.6	3.25	12
C[C@]12C=CC(=O)C=C1CC[C@@H]1[C@@H]2C(=O)C[C@@]2(C)[C@H]1CC[C@]2(O)C(=O)CO [Prednisone] (max concentration tested 10000 nM)	0	0.07	0	0	0	0	0	0	0	0	0	0	0	0	0	3.03	12.9	-0.144	2.63	0.647 ± 14	-0.361 ± 2	-2.07	4.83	-5.67
CNNCc1ccc(C(=O)NC(C)C)cc1 [Procarbazine] (max concentration tested 10000 nM)	0	0	0	0	0	0	0	0	0	0	0	0	0.135 ± 0.19	0	0	4.68	-5.24	4.32	3.15	-0.333 ± 1.2	-14.6 ± 3.4	1.52	4.63	3.64
Cn1cc(CNCC2CCN(c3ncc(C(=O)NO)cn3)CC2)c2ccccc21 [Quisinostat] (max concentration tested 1000 nM)	14.7	15.7	16	13.9	20.8 ± 1.1	20.6 ± 0.34	21	15.6	24.2	6.33	7.77	7.35	17.2 ± 0.8	13.8	9	93.3	98.6	95.9	95.7	102.2 ± 0.95	103.4 ± 0.44	102	99.4	99
